Data: patent US20230095276A1, “ESTERS OF A RETINOID AND A TOCOPHEROL OR TERT-BUTYLHYDROQUINONE AND PREPARATIONS THEREOF” (Conagen Inc., priority 2021, published 2023)

Tests used:
Format in all cases: cell-based
[1] = biological target: T1, RAR alpha (Homo sapiens, UniProt P10276); experiment: RAR alpha agonist reporter cell assay (Gal4 DBD receptor hybrid, luciferase); conditions: for Fold Activation: 23 hours, vs DMSO; for agonist activity towards RAR alpha (in words): summary of Table 1
T1 sequence (P10276 183-417 limits assumed): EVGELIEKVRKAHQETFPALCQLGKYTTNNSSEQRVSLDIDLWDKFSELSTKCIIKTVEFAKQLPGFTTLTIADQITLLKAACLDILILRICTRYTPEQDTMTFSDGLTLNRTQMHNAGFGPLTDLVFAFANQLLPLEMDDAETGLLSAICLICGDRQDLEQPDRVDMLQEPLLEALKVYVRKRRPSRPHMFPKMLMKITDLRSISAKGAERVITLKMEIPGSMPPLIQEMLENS
Procedure: (§1) Reporter Cells (Indigo Biosciences, catalog #IB02201, IB02101, IB00821) were used in the assays. The reporter cells expressed a receptor hybrid in which the native N-terminal DNA binding domain (DBD) had been replaced with that of the yeast Gal4 DBD. The reporter gene, firefly luciferase, is functionally linked to the Gal4 upstream activation sequence (UAS). Receptor assays were performed as follows, Steps 1 to 3.
(§2) Step 1: A suspension of Reporter Cells was prepared in Cell Recovery Medium (CRM: containing charcoal-stripped FBS) and 100 μL of the Reporter Cell suspension was dispensed into each of the wells of a white 96-well assay plate. Step 2: Test and reference compound master stocks were prepared as solutions at 1,000× concentration in DMSO relative to the final treatment concentration. This intermediate stock was subsequently diluted directly into INDIGO Biosciences's Compound Screening Medium (CSM; containing charcoal-stripped FBS) to generate ‘2×-concentration’ treatment media. 100 μL of each prepared treatment medium was dispensed into duplicate assay wells pre-dispensed with a 100 μL suspension of Reporter Cells, thereby achieving the desired final treatment concentrations. The concentration of residual DMSO in all assay wells was 0.1% for the test and reference compounds. Assay plates were incubated at 37° C., 5% CO2 and ˜70% humidity for 23 hours. DMSO control was used to determine background activity. Retinoic acid was used with its EC100 concentration to show 100% activity of each receptor. Retinol served as positive control.
(§3) Step 3: Following the incubation period, treatment media were discarded and 100 μL/well of Luciferase Detection Reagent was added per well to determine receptor activity in terms of relative luminescence units (RLUs). Data processing: Fold activation: [Ave RLU Test Cmpd/Ave RLU DMSO].

[2] = test system: RAR gamma; experiment: RAR gamma agonist reporter cell assay (Gal4 DBD receptor hybrid, luciferase); conditions: for Fold Activation: 23 hours, vs DMSO; for agonist activity towards RAR gamma (in words): summary of Table 1
Procedure: Reporter Cells (Indigo Biosciences, catalog #IB02201, IB02101, IB00821) were used in the assays. The reporter cells expressed a receptor hybrid in which the native N-terminal DNA binding domain (DBD) had been replaced with that of the yeast Gal4 DBD. The reporter gene, firefly luciferase, is functionally linked to the Gal4 upstream activation sequence (UAS). Receptor assays were performed as follows, Steps 1 to 3. Step 1: A suspension of Reporter Cells was prepared in Cell Recovery Medium (CRM: containing charcoal-stripped FBS) and 100 μL of the Reporter Cell suspension was dispensed into each of the wells of a white 96-well assay plate. Step 2: Test and reference compound master stocks were prepared as solutions at 1,000× concentration in DMSO relative to the final treatment concentration. […] The concentration of residual DMSO in all assay wells was 0.1% for the test and reference compounds. Assay plates were incubated at 37° C., 5% CO2 and ˜70% humidity for 23 hours. DMSO control was used to determine background activity. […] Retinol served as positive control. Step 3: Following the incubation period, treatment media were discarded and 100 μL/well of Luciferase Detection Reagent was added per well to determine receptor activity in terms of relative luminescence units (RLUs). Data processing: Fold activation: [Ave RLU Test Cmpd/Ave RLU DMSO].

[3] = biological target: T2, RAR beta (Homo sapiens, UniProt P10826); experiment: RAR beta agonist reporter cell assay (Gal4 DBD receptor hybrid, luciferase); conditions: for Fold Activation: 23 hours, vs DMSO; for agonist activity towards RAR beta (in words): summary of Table 1
T2 sequence (P10826 183-417 limits assumed): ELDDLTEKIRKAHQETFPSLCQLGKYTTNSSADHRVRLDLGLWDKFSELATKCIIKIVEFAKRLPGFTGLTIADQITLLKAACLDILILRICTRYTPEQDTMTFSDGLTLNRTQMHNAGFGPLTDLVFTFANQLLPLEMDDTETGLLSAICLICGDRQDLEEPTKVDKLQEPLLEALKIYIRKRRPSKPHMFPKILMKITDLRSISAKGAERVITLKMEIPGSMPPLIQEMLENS
Procedure: as §1, §2, §3

Fold Activation ([1]; RAR alpha, 0.01 μM) | Fold Activation ([1]; RAR alpha, 0.1 μM) | Fold Activation ([1]; RAR alpha, 1 μM) | agonist activity towards RAR alpha (in words) [1] | Fold Activation ([3]; RAR beta, 0.01 μM) [fold] | Fold Activation ([3]; RAR beta, 0.1 μM) [fold] | Fold Activation ([3]; RAR beta, 1 μM) [fold] | agonist activity towards RAR beta (in words) [3] | activity compared with retinoic acid ([1]; RAR alpha) | activity compared with retinoic acid ([3]; RAR beta) | SMILES | Fold Activation ([2]; RAR gamma, 0.01 μM) [fold] | Fold Activation ([2]; RAR gamma, 0.1 μM) | Fold Activation ([2]; RAR gamma, 1 μM) [fold] | agonist activity towards RAR gamma (in words) [2] | activity compared with retinol ([1]; RAR alpha, all tested concentrations) | activity compared with retinoic acid ([2]; RAR gamma) | activity compared with retinol ([2]; RAR gamma, all tested concentrations) | activity compared with retinol ([3]; RAR beta, all tested concentrations)
1.27 fold | 9.14 fold | 552 fold | exhibited agonist activity | 0.882 | 6.33 | 149 | exhibited agonist activity | – | – | CC1=C(/C=C/C(C)=C/C=C/C(C)=C/C(=O)Oc2c(C)c(C)c3c(c2C)CCC(C)(CCCC(C)CCCC(C)CCCC(C)C)O3)C(C)(C)CCC1 (racemic) [(±)α-tocopheryl retinoate] | 1.79 | 23.8 fold | 365 | exhibited agonist activity | – | – | – | –
1,573 fold | 2,768 fold | 3,414 fold | exhibited agonist activity | 232 | 287 | 331 | exhibited agonist activity | comparable activity to retinoic acid | comparable activity to retinoic acid | CC1=C(/C=C/C(C)=C/C=C/C(C)=C/C(=O)Oc2ccc(O)c(C(C)(C)C)c2)C(C)(C)CCC1 [3-tert-Butyl-4-hydroxyphenyl retinoate, 3-tert-butyl-4-hydroxyphenyl retinoate] | 541 | 1,010 fold | 701 | exhibited agonist activity | higher activity than retinol at all tested concentrations | comparable activity to retinoic acid | higher activity than retinol at all tested concentrations | higher activity than retinol at all tested concentrations
0.620 fold | 5.25 fold | 251 fold | exhibited agonist activity | 1.57 | 3.96 | 53.4 | exhibited agonist activity | – | – | CC1=C(/C=C/C(C)=C/C=C/C(C)=C/C(=O)Oc2cc(C)c3c(c2)CC[C@@](C)(CCC[C@H](C)CCC[C@H](C)CCCC(C)C)O3)C(C)(C)CCC1 [(+)δ-Tocopheroyl retinoate, (+)δ-tocopheroyl retinoate] | 1.10 | 8.45 fold | 315 | exhibited agonist activity | – | – | – | –
– | – | – | – | – | – | – | – | – | – | CC1=C(/C=C/C(C)=C/C=C/C(C)=C/C(=O)O)C(C)(C)CCC1 [Retinoic acid, reference compound] | – | 706 fold | – | – | – | – | – | –
1.77 fold | 6.35 fold | 518 fold | – | 1.63 | 4.91 | 127 | – | – | – | CC1=C(/C=C/C(C)=C/C=C/C(C)=C/CO)C(C)(C)CCC1 [Retinol, reference compound] | 2.28 | 18.5 fold | 368 | – | – | – | – | –
